Assay [1] has as its target T1, intracellular phosphorylation of EGFR in NCI-H1975 cell line that harbors the EGFR L858R T790M mutations (Homo sapiens, UniProt P00533, L858R/T790M).
T1 construct: NCI-H1975 cell line that harbors the EGFR L858R T790M mutations (ATCC, CRL-5908); host or cells: NCI-H1975
As to the kind of experiment: NCI-H1975 pEGFR AlphaLISA assay. Conditions: NCI-H1975 cells (EGFR L858R T790M), p-EGFR (Tyr1068), 4-5 hours incubation; read-out: Ext pEGFR H1975 GMean IC50 (nM) Protocol: @Pharmaron AlphaLISA (Num). Type of assay: cell-based. The protocol:
On the next day, the test compounds and DMSO control were added into H1975 cell plate followed by incubation at 37C/5% CO2 for 4-5 hours. […] Then 5 μL of a donor bead mix was added to each well followed by overnight incubation at room temperature in dark. On the next day, the plate was read at a compatible plate reader to obtain pEGFR signal. Percent of pEGFR inhibition was plotted against log concentration of compounds to generate IC50 values.
In general terms: Bead proximity is the source of the signal in Alpha formats.

Another assay concerns the target T2, EGFR (L858R T790M C797S) (Homo sapiens, UniProt P00533, C797S/L858R/T790M).
T2 construct: purchased SignalChem E10-122VG
As to the kind of experiment: Biochemical EGFR inhibition assay (Caliper mobility shift), EGFR LRTMCS. Conditions: LRTMCS (PH) IC50 (nM) @ 1 mM ATP (Num), EGFR LRTMCS mutant. The method in brief:
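Kinase reactions proceed at 25° C. to 10%–20% conversion of total peptide, are terminated with 35 mM EDTA, and the phosphopeptide is resolved from substrate by electrophoretic mobility shift. Apparent IC50 values come from plotting percent activity against log compound concentration.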

SMILES strings stand for the structures. Where a name gives a salt, the structure may show the parent alone.

T2 sequence (P00533 25-1210 T790M/C797S/L858R): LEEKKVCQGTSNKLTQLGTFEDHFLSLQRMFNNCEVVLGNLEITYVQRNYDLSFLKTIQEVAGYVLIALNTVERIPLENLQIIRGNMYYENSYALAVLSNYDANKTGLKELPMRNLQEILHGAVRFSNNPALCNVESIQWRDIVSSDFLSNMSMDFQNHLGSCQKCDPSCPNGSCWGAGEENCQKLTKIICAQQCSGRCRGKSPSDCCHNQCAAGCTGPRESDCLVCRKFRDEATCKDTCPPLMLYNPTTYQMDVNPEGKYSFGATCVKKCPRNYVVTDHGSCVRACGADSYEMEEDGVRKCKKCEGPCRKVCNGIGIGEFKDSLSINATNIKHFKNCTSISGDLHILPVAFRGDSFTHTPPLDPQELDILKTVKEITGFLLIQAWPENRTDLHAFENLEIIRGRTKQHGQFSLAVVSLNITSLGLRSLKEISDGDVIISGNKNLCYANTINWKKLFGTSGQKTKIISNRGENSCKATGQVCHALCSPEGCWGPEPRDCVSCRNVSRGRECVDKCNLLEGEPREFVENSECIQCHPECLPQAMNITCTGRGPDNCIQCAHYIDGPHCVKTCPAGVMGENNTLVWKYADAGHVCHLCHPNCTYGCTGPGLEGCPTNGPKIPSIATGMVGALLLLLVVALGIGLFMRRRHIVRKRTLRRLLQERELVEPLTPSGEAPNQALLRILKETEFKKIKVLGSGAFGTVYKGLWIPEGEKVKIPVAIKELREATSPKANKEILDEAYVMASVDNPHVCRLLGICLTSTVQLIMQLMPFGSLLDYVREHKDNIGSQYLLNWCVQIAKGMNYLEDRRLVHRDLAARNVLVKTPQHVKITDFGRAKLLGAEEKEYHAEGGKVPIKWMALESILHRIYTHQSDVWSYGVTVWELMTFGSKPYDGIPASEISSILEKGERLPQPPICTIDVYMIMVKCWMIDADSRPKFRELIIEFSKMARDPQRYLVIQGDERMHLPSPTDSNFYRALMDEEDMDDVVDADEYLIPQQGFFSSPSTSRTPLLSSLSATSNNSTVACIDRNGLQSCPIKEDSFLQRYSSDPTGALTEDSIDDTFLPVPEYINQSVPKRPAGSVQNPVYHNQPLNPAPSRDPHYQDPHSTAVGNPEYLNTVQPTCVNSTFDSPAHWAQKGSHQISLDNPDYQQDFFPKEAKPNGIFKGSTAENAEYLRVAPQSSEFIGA
T1 sequence (P00533 25-1210 T790M/L858R): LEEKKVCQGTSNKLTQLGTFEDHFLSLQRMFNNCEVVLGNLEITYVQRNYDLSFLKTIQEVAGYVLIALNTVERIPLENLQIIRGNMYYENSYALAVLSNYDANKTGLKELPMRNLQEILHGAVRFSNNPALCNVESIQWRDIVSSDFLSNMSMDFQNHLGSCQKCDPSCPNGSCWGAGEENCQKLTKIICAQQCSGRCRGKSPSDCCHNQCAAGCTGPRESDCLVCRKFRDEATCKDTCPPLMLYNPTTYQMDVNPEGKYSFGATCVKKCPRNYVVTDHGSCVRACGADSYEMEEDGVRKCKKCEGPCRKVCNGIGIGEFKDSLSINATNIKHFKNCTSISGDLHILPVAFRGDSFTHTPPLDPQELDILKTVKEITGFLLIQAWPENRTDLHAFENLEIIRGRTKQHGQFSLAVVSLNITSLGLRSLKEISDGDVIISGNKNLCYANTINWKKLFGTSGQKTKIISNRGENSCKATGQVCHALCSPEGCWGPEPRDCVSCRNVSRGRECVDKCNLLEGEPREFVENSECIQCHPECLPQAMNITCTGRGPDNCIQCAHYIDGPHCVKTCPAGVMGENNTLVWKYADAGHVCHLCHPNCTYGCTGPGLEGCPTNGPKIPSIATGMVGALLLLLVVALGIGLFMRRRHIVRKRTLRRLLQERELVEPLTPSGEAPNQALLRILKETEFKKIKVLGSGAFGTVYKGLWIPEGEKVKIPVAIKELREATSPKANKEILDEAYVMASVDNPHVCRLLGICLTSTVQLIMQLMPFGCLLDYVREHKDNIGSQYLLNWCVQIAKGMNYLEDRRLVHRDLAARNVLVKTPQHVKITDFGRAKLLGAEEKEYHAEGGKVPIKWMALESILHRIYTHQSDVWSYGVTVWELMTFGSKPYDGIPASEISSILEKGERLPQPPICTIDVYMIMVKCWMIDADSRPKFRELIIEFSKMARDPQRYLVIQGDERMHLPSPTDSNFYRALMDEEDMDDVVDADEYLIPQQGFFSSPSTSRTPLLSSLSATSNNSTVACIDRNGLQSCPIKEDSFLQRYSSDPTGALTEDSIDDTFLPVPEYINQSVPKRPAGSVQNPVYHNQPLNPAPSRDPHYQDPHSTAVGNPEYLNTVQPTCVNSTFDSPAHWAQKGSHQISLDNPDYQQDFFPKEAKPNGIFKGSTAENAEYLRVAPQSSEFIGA

As usually defined, the IC50 is the concentration needed to halve the response being measured. Turning to `CC(C)c1cnc(N2C[C@H](O)[C@H]2C)c2cnc(Nc3ccnc(N4C[C@H](F)[C@H](O)[C@@](C)(F)C4)n3)cc12` (single isomer, unassigned) [Example 135, (3S,4S,5S)-3,5-difluoro-1-(4-((8-((2R,3S)-3-hydroxy-2-methylazetidin-1-yl)-5-isopropyl-2,7-naphthyridin-3-yl)amino)pyrimidin-2-yl)-3-methylpiperidin-4-ol or (3R,4R,5R)-3,5-difluoro-1-(4-((8-((2R,3S)-3-hydroxy-2-methylazetidin-1-yl)-5-isopropyl-2,7-naphthyridin-3-yl)amino)pyrimidin-2-yl)-3-methylpiperidin-4-ol], the values for the IC50 (in assay [1]; on EGFR (L858R T790M C797S)) were more than 50 nM and 20 to 30 nM, respectively.
In the case of `CC(C)c1cnc(-c2cnn(C)c2CN(C)C)c2cnc(Nc3ccnc(N4CC[C@@H](O)[C@@](C)(F)C4)n3)cc12` [Example 13, (3S,4R)-1-(4-((8-(5-((dimethylamino)methyl)-1-methyl-1H-pyrazol-4-yl)-5-isopropyl-2,7-naphthyridin-3-yl)amino)pyrimidin-2-yl)-3-fluoro-3-methylpiperidin-4-ol trifluoroacetate], the results for the IC50 (in assay [1]; on EGFR (L858R T790M C797S)) were more than 50 nM and 30 to 100 nM, respectively.
The like results for `C[C@H](C#N)c1ncc(N2CC[C@H]2C)c2cnc(Nc3ccnc(N4CC[C@@H](O)[C@@](C)(F)C4)n3)cc12` (single isomer, unassigned) [Example 157, (S)-2-(7-((2-((3S,4R)-3-fluoro-4-hydroxy-3-methylpiperidin-1-yl)pyrimidin-4-yl)amino)-4-((R)-2-methylazetidin-1-yl)-2,6-naphthyridin-1-yl)propanenitrile or (R)-2-(7-((2-((3S,4R)-3-fluoro-4-hydroxy-3-methylpiperidin-1-yl)pyrimidin-4-yl)amino)-4-((R)-2-methylazetidin-1-yl)-2,6-naphthyridin-1-yl)propanenitrile] were, in that order, more than 50 nM and less than 15 nM.
The corresponding values for `C[C@H](CC#N)c1cnc(N2CC[C@H]2C)c2cnc(Nc3ccnc(N4CC[C@@H](O)[C@@](C)(F)C4)n3)cc12` (single isomer, unassigned) [Example 36, (R)-3-(6-((2-((3S,4R)-3-fluoro-4-hydroxy-3-methylpiperidin-1-yl)pyrimidin-4-yl)amino)-1-((R)-2-methylazetidin-1-yl)-2,7-naphthyridin-4-yl)butanenitrile or (S)-3-(6-((2-((3S,4R)-3-fluoro-4-hydroxy-3-methylpiperidin-1-yl)pyrimidin-4-yl)amino)-1-((R)-2-methylazetidin-1-yl)-2,7-naphthyridin-4-yl)butanenitrile] are less than 10 nM and less than 15 nM.
In the case of `CC(C)c1cnc(N2CC(F)C2)c2cnc(Nc3ccnc(N4CC[C@@H](O)[C@@](C)(F)C4)n3)cc12` [Example 47, (3S,4R)-3-fluoro-1-(4-((8-(3-fluoroazetidin-1-yl)-5-isopropyl-2,7-naphthyridin-3-yl)amino)pyrimidin-2-yl)-3-methylpiperidin-4-ol], the IC50 in assay [1] is 20 to 30 nM; at EGFR (L858R T790M C797S), less than 15 nM.
As for `CC(C)c1ccc(N2CC[C@H]2CO)c2cnc(Nc3ccnc(N4CC[C@@H](O)[C@@](C)(F)C4)n3)cc12` [Example 105, (3S,4R)-3-fluoro-1-(4-((8-((S)-2-(hydroxymethyl)azetidin-1-yl)-5-isopropylisoquinolin-3-yl)amino)pyrimidin-2-yl)-3-methylpiperidin-4-ol], the IC50 is 20 to 30 nM in assay [1] and less than 15 nM at EGFR (L858R T790M C797S).
For the molecule `C[C@H]1CCN1c1ncc(CC2(C)COC2)c2cc(Nc3ccnc(N4CC[C@@H](O)[C@@](C)(F)C4)n3)ncc12` (single isomer, unassigned) [Example 156, (3S,4R)-3-fluoro-3-methyl-1-(4-((8-((S)-2-methylazetidin-1-yl)-5-((3-methyloxetan-3-yl)methyl)-2,7-naphthyridin-3-yl)amino)pyrimidin-2-yl)piperidin-4-ol or (3S,4R)-3-fluoro-3-methyl-1-(4-((8-((R)-2-methylazetidin-1-yl)-5-((3-methyloxetan-3-yl)methyl)-2,7-naphthyridin-3-yl)amino)pyrimidin-2-yl)piperidin-4-ol], the values for the IC50 (in assay [1]; at EGFR (L858R T790M C797S)) were more than 50 nM and 20 to 30 nM, respectively.
The corresponding values for `CO[C@H]1CCN(c2nccc(Nc3cc4c(C(C)C)cnc(N5CC[C@H]5C)c4cn3)n2)C[C@H]1OCCO` (single isomer, unassigned) [Example 167, 2-(((3R,4S)-1-(4-((5-isopropyl-8-((R)-2-methylazetidin-1-yl)-2,7-naphthyridin-3-yl)amino)pyrimidin-2-yl)-4-methoxypiperidin-3-yl)oxy)ethan-1-ol or 2-(((3S,4R)-1-(4-((5-isopropyl-8-((R)-2-methylazetidin-1-yl)-2,7-naphthyridin-3-yl)amino)pyrimidin-2-yl)-4-methoxypiperidin-3-yl)oxy)ethan-1-ol] are less than 10 nM and less than 15 nM.
Take `CC(C)c1cnc(-c2cnn(C3CN(C)C3)c2)c2cnc(Nc3ccnc(N4CC[C@@H](O)[C@@](C)(F)C4)n3)cc12` [Example 22, (3S,4R)-3-fluoro-1-(4-((5-isopropyl-8-(1-(1-methylazetidin-3-yl)-1H-pyrazol-4-yl)-2,7-naphthyridin-3-yl)amino)pyrimidin-2-yl)-3-methylpiperidin-4-ol]: the IC50 was more than 50 nM in assay [1] and 15 to 20 nM at EGFR (L858R T790M C797S).
The corresponding values for `CO[C@@H]1CCN(c2nccc(Nc3cc4c(C(C)C)cnc(N5CC(F)C5)c4cn3)n2)C[C@@H]1O` (single isomer, unassigned) [Example 118, (3S,4R)-1-(4-((8-(3-fluoroazetidin-1-yl)-5-isopropyl-2,7-naphthyridin-3-yl)amino)pyrimidin-2-yl)-4-methoxypiperidin-3-ol or (3R,4S)-1-(4-((8-(3-fluoroazetidin-1-yl)-5-isopropyl-2,7-naphthyridin-3-yl)amino)pyrimidin-2-yl)-4-methoxypiperidin-3-ol] are more than 50 nM and 20 to 30 nM.
The like results for `CC(C)c1cnc(N2CC[C@H]2C)c2cnc(Nc3ccnc(N4CC[C@@H](OCCN(C)C)[C@@H](F)C4)n3)cc12` [Example 203, N-(2-((3S,4R)-4-(2-(dimethylamino)ethoxy)-3-fluoropiperidin-1-yl)pyrimidin-4-yl)-5-isopropyl-8-((R)-2-methylazetidin-1-yl)-2,7-naphthyridin-3-amine] were, in that order, 30 to 50 nM and less than 15 nM.
The corresponding values for `CC(C)c1cnc(N2CC(S(C)(=O)=O)C2)c2cnc(Nc3ccnc(N4CC[C@@H](O)[C@@](C)(F)C4)n3)cc12` [Example 69, (3S,4R)-3-fluoro-1-(4-((5-isopropyl-8-(3-(methylsulfonyl)azetidin-1-yl)-2,7-naphthyridin-3-yl)amino)pyrimidin-2-yl)-3-methylpiperidin-4-ol] are 30 to 50 nM and less than 15 nM.
In the case of `CC(C)c1cnc(N2C[C@H](O)[C@H]2C)c2cnc(Nc3ccnc(N4C[C@@H](F)[C@@H](O)[C@](C)(F)C4)n3)cc12` (single isomer, unassigned) [Example 136, (3R,4R,5R)-3,5-difluoro-1-(4-((8-((2R,3S)-3-hydroxy-2-methylazetidin-1-yl)-5-isopropyl-2,7-naphthyridin-3-yl)amino)pyrimidin-2-yl)-3-methylpiperidin-4-ol or (3S,4S,5S)-3,5-difluoro-1-(4-((8-((2R,3S)-3-hydroxy-2-methylazetidin-1-yl)-5-isopropyl-2,7-naphthyridin-3-yl)amino)pyrimidin-2-yl)-3-methylpiperidin-4-ol], the IC50 in assay [1] is 20 to 30 nM; on EGFR (L858R T790M C797S) it was less than 15 nM.
The like results for `CC(C)c1cnc(N2CCC23CNC3)c2cnc(Nc3ccnc(N4CC[C@@]5(CCO5)C(F)(F)C4)n3)cc12` (single isomer, unassigned) [Example 191, (R)—N-(2-(5,5-difluoro-1-oxa-7-azaspiro[3.5]nonan-7-yl)pyrimidin-4-yl)-5-isopropyl-8-(1,6-diazaspiro[3.3]heptan-1-yl)-2,7-naphthyridin-3-amine or (S)—N-(2-(5,5-difluoro-1-oxa-7-azaspiro[3.5]nonan-7-yl)pyrimidin-4-yl)-5-isopropyl-8-(1,6-diazaspiro[3.3]heptan-1-yl)-2,7-naphthyridin-3-amine] were, in that order, more than 50 nM and less than 15 nM.
The like results for `CC(C)c1cnc(N2CC[C@H]2C)c2cnc(Nc3ccnc(N4CC[C@@H](OCCO)[C@@H](F)C4)n3)cc12` [Example 142, 2-(((3S,4R)-3-fluoro-1-(4-((5-isopropyl-8-((R)-2-methylazetidin-1-yl)-2,7-naphthyridin-3-yl)amino)pyrimidin-2-yl)piperidin-4-yl)oxy)ethan-1-ol] were, in that order, less than 10 nM and less than 15 nM.

The record behind these values is patent publication US20240382483A1, “HETEROCYCLIC EGFR INHIBITORS FOR USE IN THE TREATMENT OF CANCER” (Blueprint Medicines Corporation, priority 2021, published 2024).
